One experiment concerns ESK1 antibody. Description: ESK1 antibody binding specificity to peptide-MHC assemblies for WT1 9mer peptides. Particulars: FIG. 7. From the text: Because the array of peptides on the surface is spatially-ordered, the sequence of every peptide is immediately known. Each amino acid of the 9 amino acid peptide was substituted for each of the 20 possible amino acids to identify those positions within this peptide that are essential for forming a proper peptide-MHCI complex. […] The amino acids A, F, I, L, M, V, W and P are nonpolar amino acids. The amino acids G, S, Y, C, Q, T, N are polar amino acids. The amino acids R, K and H are basic amino acids. The amino acids D and E are acidic amino acids.

A further experiment addresses HLA-A2 (Homo sapiens, UniProt P04439, D140Y/D185E/D98H/E176V/E277Q/G131W/G231S/I119V/I121R/I166T/I218V/N151K/N90K/P208A/P217A/Q86G/Q94H/R138H/R169H). Particulars: binding at pH 6.5 at 4° C. overnight, FIG. 10A/10B.

Description for HLA-A2: Binding was performed at pH 6.5 at 4° C. overnight.

Regarding RVPGVAPTL, the “ESK1 antibody binding specificity (relative fluorescence intensity)” value with ESK1 antibody was “cross-reactive target”.

On to RLYDYFTRV, for which the “peptide-MHC assembly signal, negatively charged HEX-asp-3HEX linker versus standard 5HEX linker” value at HLA-A2 is recorded as “increase in the peptide-MHC assembly signal”.

The record behind these values is patent publication US11583575B2, “MHC-bound peptide arrays and methods of use thereof” (Roche Sequencing Solutions, Inc., priority 2016, dated 2023).
